Source: patent publication US12252481B2, “Anti-viral compounds” (Aligos Therapeutics, Inc., priority 2021, dated 2025)
Read-outs that look alike come from different tables or passages of the source.

What was measured:
[1] = target: T1, SARS-Cov-2 3CLpro (Severe acute respiratory syndrome coronavirus 2, UniProt P0DTD1); experiment: biochemical; settings: 3CLpro, 30 mins preincubation, SAMDI-MS; read-out: SARS-Cov-2 IC50 (class)
T1 construct: 3CLpro and HRV3C was added using a Multidrop Combi

[2] = target: T2, HRV3C (Human rhinovirus 14, UniProt P03303); experiment: biochemical; parameters: species or system HRV; settings: HRV3C, 30 mins preincubation, SAMDI-MS
T2 construct: 3CLpro and HRV3C was added using a Multidrop Combi
T2 sequence (P03303 1538-1719): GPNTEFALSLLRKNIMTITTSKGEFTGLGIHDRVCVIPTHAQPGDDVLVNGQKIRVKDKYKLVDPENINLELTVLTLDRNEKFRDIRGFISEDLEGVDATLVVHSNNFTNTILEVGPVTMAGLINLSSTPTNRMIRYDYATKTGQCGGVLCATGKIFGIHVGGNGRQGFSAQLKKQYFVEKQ

[3] = tested on: human beta-coronavirus OC43; experiment: OC43 coronavirus antiviral assay in HeLa cells (cytopathic effect, cell-titer-glo); type: cell-based; settings: Betacoronavirus 1, OC43, HeLa, 144 h, 6 days at 33° C.
[4] = tested on: SARS-CoV-2-GHB-03021/2020; type: cell-based; settings: read-out: VeroE6 + CP (EC50)
[5] = tested on: B.1.1.7 lineage SARS-CoV-2; experiment: microbe, parasite or virus in culture; type: cell-based; settings: Severe acute respiratory syndrome coronavirus 2, 96 h, read-out: A549-dual_ACE2_TMPRSS2 (EC50)
[6] = target: T3, human cathepsin L (Homo sapiens, UniProt P07711); experiment: Cathepsin L assay (Z-FR-AMC fluorescence); type: biochemical; settings: 10 pM human cathepsin L, 30 mins preincubation, Z-FR-AMC 2 μM
T3 construct: purchased R&D Systems
T3 sequence (P07711 114-333): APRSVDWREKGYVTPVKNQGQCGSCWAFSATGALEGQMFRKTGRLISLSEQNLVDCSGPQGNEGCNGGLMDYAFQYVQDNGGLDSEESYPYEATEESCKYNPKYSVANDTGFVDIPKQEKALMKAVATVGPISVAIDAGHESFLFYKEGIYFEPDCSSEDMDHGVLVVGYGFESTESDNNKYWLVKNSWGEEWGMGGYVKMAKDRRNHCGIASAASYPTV
Summary of the method: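 Human cathepsin L (10 pM) was preincubated 30 min with compound, then reactions were started with Z-FR-AMC substrate (2 μM final). AMC fluorescence (355/460 nm) was read every 2 min over 30 min. IC50 came from a four-parameter curve fit.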

[7] = […], numeric bounds given instead of class symbols

SMILES	IC50 [1]	IC50 ([2]; read-out: HRV IC50 (bound))	EC50 ([3]; read-out: EC50 (class))	EC50 [4]	EC50 [5]	IC50 [6]	EC50 ([3]; read-out: EC50 (bound))	EC50 [5, 7]	IC50 ([2]; read-out: HRV IC50 (class))
CC(C)(C)[C@H](NC(=O)C1CC12CC2)C(=O)N1C[C@H]2[C@@H]([C@H]1C(=O)N[C@H](C#N)C[C@@H]1CCNC1=O)[C@H]1C=C[C@@H]2C1 (stereo partly drawn) [Example 34, (1R,2S,3S,6R,7S)—N-[(1S)-1-cyano-2-[(3S)-2-oxopyrrolidin-3-yl]ethyl]-4-[(2S)-3,3-dimethyl-2-{spiro[2.2]pentan-1-ylformamido}butanoyl]-4-azatricyclo[5.2.1.0^{2,6}]dec-8-ene-3-carboxamide]	< 20 nM	> 10000 nM	< 100 nM	< 100 nM	100 to 1000 nM	≥ 10000 nM	–	–	–
CC(C)(C)[C@H](NC(=O)C(F)(F)F)C(=O)N1C[C@@H]2[C@H]3C[C@@H]([C@@H]2[C@H]1C(=O)N[C@H](C#N)C[C@@H]1CCNC1=O)[C@H](O)C3 [Example 85, (1S,2R,3S,6R,7S,9R)—N-[(1S)-1-cyano-2-[(3S)-2-oxopyrrolidin-3-yl]ethyl]-4-[(2S)-3,3-dimethyl-2-(2,2,2-trifluoroacetamido)butanoyl]-9-hydroxy-4-azatricyclo[5.2.1.0^{2,6}]decane-3-carboxamide]	200 to 2000 nM	> 10000 nM	–	10000 to 50000 nM	–	≥ 10000 nM	> 10000 nM	> 10000 nM	–
[2H][C@@H]1[C@H]([2H])[C@@H]2C[C@H]1[C@H]1[C@@H]2CN(C(=O)[C@@H](NC(=O)C(F)(F)F)C(C)(C)C)[C@@H]1C(=O)N[C@H](C#N)C[C@@H]1CCNC1=O [Example 32, (1S,3aR,4R,5S,6R,7S,7aS)-N-((S)-1-cyano-2-((S)-2-oxopyrrolidin-3-yl)ethyl)-2-((S)-3,3-dimethyl-2-(2,2,2-trifluoroacetamido)butanoyl)octahydro-1H-4,7-methanoisoindole-5,6-d^2-1-carboxamide]	< 20 nM	> 10000 nM	< 100 nM	< 100 nM	< 100 nM	≥ 10000 nM	–	–	–
O=C(NC1CC1)C(=O)C(C[C@@H]1CCNC1=O)NC(=O)[C@@H]1[C@@H]2[C@H](CN1C(=O)c1cc3c(Cl)cc(Cl)cc3[nH]1)[C@@H]1C=C[C@H]2C1 (stereo partly drawn) [Compound 46, (1S,3aR,4S,7R,7aS)—N-(4-(cyclopropylamino)-3,4-dioxo-1-((S)-2-oxopyrrolidin-3-yl)butan-2-yl)-2-(4,6-dichloro-1H-indole-2-carbonyl)-2,3,3a,4,7,7a-hexahydro-1H-4,7-methanoisoindole-1-carboxamide]	< 20 nM	–	100 to 1000 nM	100 to 1000 nM	100 to 1000 nM	≥ 10000 nM	–	–	200 to 2000 nM
CC(C)(C)[C@H](NC(=O)[C@@H]1CC1(F)F)C(=O)N1C[C@H]2[C@@H]([C@H]1C(=O)N[C@H](C#N)C[C@@H]1CCNC1=O)[C@H]1C=C[C@@H]2C1 [Compound 41]	< 20 nM	> 10000 nM	< 100 nM	< 100 nM	< 100 nM	≥ 10000 nM	–	–	–
CC(C)(C)[C@H](NC(=O)C(F)(F)F)C(=O)N1C[C@@H]2[C@H]3C[C@H]([C@@H]4C[C@@H]43)[C@@H]2[C@H]1C(=O)N[C@H](C#N)C[C@@H]1CCNC1=O [Example 2, (1R,2S,3S,6R,7S,8S,10R)—N-[(1S)-1-cyano-2-[(3S)-2-oxopyrrolidin-3-yl]ethyl]-4-[(2S)-3,3-dimethyl-2-(2,2,2-trifluoroacetamido)butanoyl]-4-azatetracyclo[5.3.1.0^{2,6}0.0^{8,10}]undecane-3-carboxamide]	20 to 200 nM	> 10000 nM	100 to 1000 nM	< 100 nM	< 100 nM	≥ 10000 nM	–	–	–
CN1CC(C[C@@H](C#N)NC(=O)[C@@H]2[C@@H]3[C@H](CN2C(=O)[C@@H](NC(=O)C(F)(F)F)C(C)(C)C)[C@@H]2C=C[C@H]3C2)C(=O)N1 (stereo partly drawn) [Compound 49, (1S,3aR,4S,7R,7aS)-N-((S)-1-cyano-2-(1-methyl-3-oxopyrazolidin-4-yl)ethyl)-2-((S)-3,3-dimethyl-2-(2,2,2-trifluoroacetamido)butanoyl)-2,3,3a,4,7,7a-hexahydro-1H-4,7-methanoisoindole-1-carboxamide]	< 20 nM	> 10000 nM	100 to 1000 nM	100 to 1000 nM	100 to 1000 nM	≥ 10000 nM	–	–	–
CC(C)(C)[C@H](NC(=O)C(F)(F)F)C(=O)N1C[C@H]2[C@@H]([C@H]1C(=O)N[C@H](C#N)C[C@@H]1CCNC1=O)[C@H]1C=C[C@@H]2C1 [Example 1, (1S,3aR,4S,7R,7aS)-N-((S)-1-cyano-2-((S)-2-oxopyrrolidin-3-yl)ethyl)-2-((S)-3,3-dimethyl-2-(2,2,2-trifluoroacetamido)butanoyl)-2,3,3a,4,7,7a-hexahydro-1H-4,7-methanoisoindole-1-carboxamide]	< 20 nM	> 10000 nM	< 100 nM	< 100 nM	< 100 nM	≥ 10000 nM	–	–	–
CC(C)(C)[C@H](NC(=O)C(F)(F)F)C(=O)N1C[C@H]2[C@@H]([C@H]1C(=O)NC(C#N)C[C@]13CC[C@H](C1)NC3=O)[C@H]1C=C[C@@H]2C1 (stereo partly drawn) [Example 26, (1S,3aR,4S,7R,7aS)—N-(1-cyano-2-((1R,4S)-3-oxo-2-azabicyclo[2.2.1]heptan-4-yl)ethyl)-2-((S)-3,3-dimethyl-2-(2,2,2-trifluoroacetamido)butanoyl)-2,3,3a,4,7,7a-hexahydro-1H-4,7-methanoisoindole-1-carboxamide]	20 to 200 nM	> 10000 nM	100 to 1000 nM	100 to 1000 nM	100 to 1000 nM	≥ 10000 nM	–	–	–
CC(C)(C)[C@H](NC(=O)C(F)(F)F)C(=O)N1C[C@H]2[C@@H]([C@H]1C(=O)NC(C#N)Cc1ccc[nH]c1=O)[C@H]1C=C[C@@H]2C1 (single isomer, unassigned) [Compound 57, (1S,3aR,4S,7R,7aS)-N-((S*)-1-cyano-2-(2-oxo-1,2-dihydropyridin-3-yl)ethyl)-2-((S)-3,3-dimethyl-2-(2,2,2-trifluoroacetamido)butanoyl)-2,3,3a,4,7,7a-hexahydro-1H-4,7-methanoisoindole-1-carboxamide]	20 to 200 nM	> 10000 nM	100 to 1000 nM	100 to 1000 nM	100 to 1000 nM	≥ 10000 nM	–	–	–
O=C(NC1CC1)C(=O)C(C[C@@H]1CCNC1=O)NC(=O)[C@@H]1[C@@H]2[C@H](CN1C(=O)c1nc3c(Cl)ccc(Cl)c3[nH]1)[C@@H]1C=C[C@H]2C1 (stereo partly drawn) [Compound 45, (1S,3aR,4S,7R,7aS)—N-(4-(cyclopropylamino)-3,4-dioxo-1-((S)-2-oxopyrrolidin-3-yl)butan-2-yl)-2-(4,7-dichloro-1H-benzo[d]imidazole-2-carbonyl)-2,3,3a,4,7,7a-hexahydro-1H-4,7-methanoisoindole-1-carboxamide]	20 to 200 nM	–	1000 to 10000 nM	1000 to 10000 nM	1000 to 10000 nM	≥ 10000 nM	–	–	2000 to 20000 nM
CC(C)(C)C(C(=O)N1C[C@H]2[C@@H]([C@H]1C(=O)N[C@H](C#N)C[C@@H]1CCNC1=O)[C@H]1C=C[C@@H]2C1)n1cc(C(F)(F)F)nn1 (stereo partly drawn) [Compound 42, (1S,3aR,4S,7R,7aS)-N-((S)-1-cyano-2-((S)-2-oxopyrrolidin-3-yl)ethyl)-2-(3,3-dimethyl-2-(4-(trifluoromethyl)-1H-1,2,3-triazol-1-yl)butanoyl)-2,3,3a,4,7,7a-hexahydro-1H-4,7-methanoisoindole-1-carboxamide]	20 to 200 nM	> 10000 nM	100 to 1000 nM	100 to 1000 nM	100 to 1000 nM	≥ 10000 nM	–	–	–
CC(C)(C)[C@H](NC(=O)C(F)(F)F)C(=O)N1C[C@H]2[C@@H]([C@H]1C(=O)N[C@H](C#N)C[C@@H]1CCCNC1=O)[C@H]1C=C[C@@H]2C1 [Example 16, (1S,3aR,4S,7R,7aS)-N-((S)-1-cyano-2-((S)-2-oxopiperidin-3-yl)ethyl)-2-((S)-3,3-dimethyl-2-(2,2,2-trifluoroacetamido)butanoyl)-2,3,3a,4,7,7a-hexahydro-1H-4,7-methanoisoindole-1-carboxamide]	< 20 nM	> 10000 nM	< 100 nM	< 100 nM	< 100 nM	≥ 10000 nM	–	–	–
CC(C)(C)[C@H](NC(=O)[C@H]1CC1(F)F)C(=O)N1C[C@H]2[C@@H]([C@H]1C(=O)N[C@H](C#N)C[C@@H]1CCNC1=O)[C@H]1C=C[C@@H]2C1 [Example 33, (1S,3aR,4S,7R,7aS)-N-((S)-1-cyano-2-((S)-2-oxopyrrolidin-3-yl)ethyl)-2-((S)-2-((R)-2,2-difluorocyclopropane-1-carboxamido)-3,3-dimethylbutanoyl)-2,3,3a,4,7,7a-hexahydro-1H-4,7-methanoisoindole-1-carboxamide]	< 20 nM	> 10000 nM	< 100 nM	< 100 nM	100 to 1000 nM	≥ 10000 nM	–	–	–
CC(C)(C)[C@@H](C(=O)N1C[C@H]2[C@@H]([C@H]1C(=O)N[C@H](C#N)C[C@@H]1CCNC1=O)[C@H]1C=C[C@@H]2C1)N1CCCC1=O [Compound 70]	2000 to 20000 nM	> 10000 nM	–	10000 to 50000 nM	–	≥ 10000 nM	> 10000 nM	> 10000 nM	–
